Measurements reported in a melting point compilation (Tetko et al.; mined from patent text by program, amines drawn as free bases though some values may be those of a salt).

| SMILES | melting point |
| --- | --- |
| CC(C)(C)OC(=O)CN(CCO)C(=O)c1cc([N+](=O)[O-])ccc1F | 116 to 118 °C |
| CC(=O)OC1CSC(Oc2cccc(C(C)=O)c2)C(OC(C)=O)C1OC(C)=O (stereo unspecified) | 150 to 153 °C |
| COc1ccc(Cl)cc1C(=O)NCCc1ccc(-c2ccco2)c(S(N)(=O)=O)c1 | 195 °C |
| CN1C(=O)NC(=O)C1=O | 146 to 149 °C |
| O=c1cc(-c2nc3ccccc3[nH]2)oc2ccccc12 | 232 °C |
| COc1cc2c(c(Cl)c1Cl)C(=O)C(CCCCCl)C2 (stereo unspecified) | 92 °C |
| COC(=O)Cc1cnc(-c2ccccc2)n1Cc1ccccc1 | 78 to 79 °C |
| CC(=O)Nc1ccccc1C=C1c2ccccc2CCc2ccccc21 | 190 °C |
| CN(CCO)c1ccc([N+](=O)[O-])cn1 | 83 to 84 °C |
| CC(=O)c1ccc(-c2ccc(Cl)cc2)c(N)c1 | 139 to 140 °C |
| COc1cc(C=O)ccc1OCc1csc(N2CCOCC2)n1 | 122 to 123 °C |
| CC(C)(C)c1cc(C=C2SCN(C3CC3)C2=O)cc(C(C)(C)C)c1O | 162 to 164 °C |
| CCCCCCCCCCCCCCCCCNC(=O)OCCOCCOC(=O)NCc1ccccn1 | 91 to 92 °C |
| NC(=O)CC[C@H](NC(=O)c1ccc(OCc2ccccc2)cc1OCc1ccccc1)C(=O)N1CCN(Cc2ccccc2)CC1 | 133 to 135 °C |
| COc1ccc(C=CCCl)cc1 | 70 to 72 °C |
| CN(C)c1ccc(/C=C/c2c(F)cccc2Cl)cc1 | 42 to 44 °C |
| COc1ccc(C(F)(F)F)cc1Nc1cccn2nc(Nc3cccc(N4CCN(C)CC4)c3)nc12 | 198 to 200 °C |
| O=C(O)COc1ccc2cc(-c3oc4ccccc4c3C(=O)c3ccccc3)ccc2c1 | 178 to 181 °C |
| O=C(NC(Cc1ccc(OCc2cccc(F)c2)cc1)C(=O)O)c1cn2ccc(-c3ccc(Cl)cc3)cc2n1 (stereo unspecified) | 248 to 250 °C |
| Cc1cc(Br)c(NC(=O)CBr)c(Br)n1 | 197 to 199 °C |
| COCC(COC)Oc1ccc(C#CC2(O)CN3CCC2CC3)cc1 (stereo unspecified) | 125 to 127 °C |
| C=CCONC(=O)c1nc(-c2ccc(Cl)c(OC)c2F)nc(N)c1Cl | 159 to 161 °C |
| CC(C)Oc1nccc2c1C(c1ccccc1C(F)(F)F)c1c(cc[nH]c1=O)N2 (stereo unspecified) | 315 °C |
| Cn1cc(Br)cc(Nc2cc(C3CC3)n[nH]2)c1=O | 203 to 204 °C |

| SMILES | melting point |
| --- | --- |
| N#CC1=C(c2ccccc2)Nc2n[nH]cc2C1c1ccccc1Cl (stereo unspecified) | 158 °C |
| COC(=O)c1ccc(COc2ccc(-c3ncccc3S(=O)(=O)N(C(=O)OCC(C)C)c3ncc(C)nc3OC)cc2)cc1 | 134 to 135 °C |
| COc1ccc(Nc2ccc(OCc3ccccc3)cc2)c(CO)c1 | 100 to 101 °C |
| CN(C)C(=S)Oc1ccc(C(=O)c2cccc(C#N)c2)cc1 | 160 °C |
| CC(C)c1nn(-c2ccc(C(F)(F)F)cn2)cc1CCCOc1nn(C2CCCCC2)cc1CC(=O)O | 116 to 117 °C |
| COc1ccc([N+](=O)[O-])c(Br)c1OC | 120 to 122 °C |
| O=C(c1cc(C(F)(F)F)cc(C(F)(F)F)c1)N1CCC(N2CCN(Cc3ccccc3)CC2)CC1Cc1ccccc1 (stereo unspecified) | 144 °C |
| C=C1CC2C(CCC3(C)C2CCC3(OC(C)=O)C(C)=O)C2(C)CCC(=O)C=C12 (stereo unspecified) | 234 to 236 °C |
| O=C(c1ccc(O)c(Cl)c1)N1CC=CCC1 | 186 to 189 °C |
| COc1ccc(OC(C)=O)c(C(=O)O)c1 | 155 to 157 °C |
| CSc1nc(Cl)cc2nncn12 | 164 to 165 °C |
| CCCOc1n[nH]c(=O)n1C1CCCCC1 | 132 to 136 °C |
| Cc1cc(C(F)(F)F)nn1CC(=O)N1CCC(c2nc(C3=NOC(c4cccc(-n5cncn5)c4)C3)cs2)CC1 (stereo unspecified) | 83 to 85 °C |
| CCc1cccc(C)c1N(CN1CCOC1=O)C(=O)CCl | 101 to 102 °C |
| Fc1ccc(CNc2nc(OCC(F)(F)F)nc(-c3ccccc3)n2)cc1 | 170 to 172 °C |
| CC(=O)OCc1nc2c(NCc3c(C)cccc3C)cc(Br)cc2n1C | 188 to 190 °C |
| NNCc1ccccc1S(=O)(=O)O | 257 to 262 °C |
| CCCCCCCCCCCCCCCCCCNC(=O)OCC(CNS(=O)(=O)CCCI)COC (stereo unspecified) | 69 to 70 °C |
| Cc1ccnc2c([N+](=O)[O-])cc3c(c12)OCO3 | 183 to 185 °C |
| COCCN1CCn2c1nc(C(=O)NCc1ccc(F)cc1)c(O)c2=O | 166 °C |
| CSc1ncnn1C[C@]1(c2ccc(F)cc2)O[C@@H]1c1cccc(Cl)c1F (relative stereo) | 88 °C |
| CC1=C(C(=O)O)N2C(=O)C(=NSc3ccc(C)cc3)C2SC1 (stereo unspecified) | 186 to 187 °C |
| CCCCN1CSC(=S)N(Cc2ccncc2)C1 | 75 to 80 °C |
| CON=C(C(=O)O)c1nc(NC=O)c(Cl)cc1Cl | 164 to 165 °C |

| SMILES | melting point |
| --- | --- |
| COc1cc(C)c2c(Cl)c(OC)cc([N+](=O)[O-])c2n1 | 199 to 200 °C |
| CC(C)(C)OC(=O)[C@H]1CC[C@@H](c2ccccc2)N1C(=O)CNC(=O)Nc1cccc(CO)c1 (racemic) | 168 °C |
| O=NN(CCCl)C(=O)NC1OC(CO)C(O)C1O (stereo unspecified) | 69 to 71 °C |
| COc1ccc(C2(C)C(=O)c3c(N4CCN(C)CC4)cc(Cl)cc3N(Cc3cccc(N)c3)C2=O)cc1 (stereo unspecified) | 90 to 93 °C |
| COc1cccc(OS(=O)(=O)c2ccc(N3CCN(C)C3=O)cc2)c1 | 111 to 113 °C |
| O=c1cc(-c2ccncn2)nc2n1CCCCC2Br (racemic) | 117 to 119 °C |
| COCCc1nc2c(N)nc3ccccc3c2n1CCCCCCCCNS(=O)(=O)c1ccccc1 | 146 to 149 °C |
| COCCn1nc2c(N)nc3ccccc3c2c1CC(C)(C)O | 171 to 172 °C |
| O=C1NC(=O)c2c1c(-c1cc([N+](=O)[O-])ccc1O)cc1[nH]c3ccc(O)cc3c21 | > 330 °C |
| COc1cc2c(c3c1OC(C)(C)C3)C(c1cccc(NC(=O)CS(C)=O)c1)=NC(C)(C)C2 (stereo unspecified) | 198 to 201 °C |
| CC(=O)Oc1ccc(-c2cc(=O)c3cc(Br)cc([N+](=O)[O-])c3o2)cc1F | 236 to 238 °C |
| O=C(O)c1cc(-n2c(-c3ccc(F)cc3)cc3c2CCCC3)ccc1O | 239 to 240 °C |
| CC1CCCN(c2cc3nc(C(C)(C)C)sc3cc2N)C1 (stereo unspecified) | 108 to 112 °C |
| COC(=O)C(C(=O)OC)N(C(N)=O)c1ccc(C=NO)cc1 | 162 °C |
| COc1ccc(-c2cc(=O)n(Cc3ccc(OC)c(F)c3)nc2-c2ccc(OC)cc2)cc1 | 166 to 168 °C |
| CCCC=Cc1c(C)nc(C(C)C)c(CO)c1-c1ccc(F)cc1 | 106 to 108 °C |
| CCCCn1c(=O)c2c(Cl)cc(Cl)cc2n(Cc2ccccc2)c1=O | 101 to 109 °C |
| CCCSC(=S)N1C(CO)Cc2c([nH]c3ccccc23)C1C (stereo unspecified) | 115 to 118 °C |
| CCC(O)c1c(C)c(NC(=O)CC(C)(C)C)c(C)c2c1OCC2c1ccc(C(C)C)cc1 (stereo unspecified) | 165 to 167 °C |
| CC12CC(=O)C3C(CCC4CC(O)CCC43C)C1CCC2C(=O)COCCN1CCOCC1 (stereo unspecified) | 112 to 113 °C |
| Cc1[nH]c(C(=O)NCC2CCCCC2)c(C)c1-c1nc2ccc(C(=O)c3ccccc3)cc2[nH]1 | 254 to 255 °C |
| O=[PH](O)Cc1cccc(P(c2ccccc2)c2ccccc2)c1 | 173 °C |
| CCOC(=O)C1=C(N)NC(C)=CC1c1cccc(Cl)c1 (stereo unspecified) | 140 °C |
